Target: T1, β-amyloid (Aβ1-42) (Homo sapiens, UniProt P05067)
T1 construct: β-amyloid (Aβ1-42, AnaSpec Inc, USA) was obtained; purchased AnaSpec Inc, USA
Assay: Beta-amyloid aggregation inhibition, fluorescence analysis (Thioflavin T assay)
Assay type: biochemical
Details: compound 10 μM; for Increased RFU (amount of aggregated β-amyloid): Aβ1-42 0.1 mg/ml, 37° C., 150 minutes; for Increased RFU (% of Pos.Cont.): aggregated β-amyloid compared to the positive control (no compound) = 100; for decreased aggregation compared with the positive control: positive control taken as 100%
Protocol: The beta-amyloid aggregation inhibitory effect of quercetin 3-O-[3-O″-(E)-p-coumaroyl][β-D-glucopyranosyl-(1→3)-O-α-L-rhamnopyranosyl-(1→6)-O-β-D-glucopyranoside] and quercetin 3-O-[3-O″-(E)-p-coumaroyl][α-L-rhamnopyranosyl-(1→6)-O-β-D-glucopyranoside] was determined by fluorescence analysis (Thioflavin T assay). Specifically, β-amyloid (Aβ1-42, AnaSpec Inc, USA) was obtained and used at a concentration of 0.1 mg/ml. It was stored at −80° C. prior to use. Each of morin (20 μM), phenol red (20 μM), quercetin 3-O-[3-O″-(E)-p-coumaroyl][β-D-glucopyranosyl-(1→3)-O-α-L-rhamnopyranosyl-(1→6)-O-β-D-glucopyranoside] (1 mg/ml), and quercetin 3-O-[3-O″-(E)-p-coumaroyl][α-L-rhamnopyranosyl-(1→6)-O-β-D-glucopyranoside] (1 mg/ml) was diluted to these concentrations in DMSO. In order to determine the degree of inhibition of Aβ1-42 aggregation, each compound at the above concentration was diluted to 10 μM in 50 μL of 0.01 M sodium phosphate buffer solution. Then, 40 μL of 0.1 mg/ml Aβ1-42 was added thereto, followed by addition of 10 μL of 2 mM Thioflavin T. The fluorescence was then measured with a fluorescence spectrometer (RF-5300PC, SHIMADZU CORPORATION, Japan) at 37° C. and intervals of 5 minutes for 150 minutes. In the table above, “RFU” denotes relative fluorescence unit, and “increased RFU” indicates the amount of aggregated β-amyloid. “Increased RFU (% of Pos.Cont.)” indicates the percentage of aggregated β-amyloid compared to the positive control. “Novel substance 31” indicates quercetin 3-O-[3-O″-(E)-p-coumaroyl][β-D-glucopyranosyl-(1→3)-O-α-L-rhamnopyranosyl-(1→6)-O-β-D-glucopyranoside], and “novel substance 32” indicates quercetin 3-O-[3-O″-(E)-p-coumaroyl][α-L-rhamnopyranosyl-(1→6)-O-β-D-glucopyranoside].

T1 sequence (P05067 672-713 limits assumed): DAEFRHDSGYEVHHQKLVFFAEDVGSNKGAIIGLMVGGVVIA

SMILES | Increased RFU (amount of aggregated β-amyloid) [RFU] | Increased RFU (% of Pos.Cont.) [%] | decreased aggregation compared with the positive control [%]
CC1OC(OCC2OC(Oc3c(-c4ccc(O)c(O)c4)oc4cc(O)cc(O)c4c3=O)C(O)C(OC(=O)/C=C/c3ccc(O)cc3)C2O)C(O)C(OC2OC(CO)C(O)C(O)C2O)C1O [Novel substance 31, quercetin 3-O-[3-O″-(E)-p-coumaroyl][β-D-glucopyranosyl-(1→3)-O-α-L-rhamnopyranosyl-(1→6)-O-β-D-glucopyranoside]] | 12955 | 88.8 | 11.2
CC1OC(OCC2OC(Oc3c(-c4ccc(O)c(O)c4)oc4cc(O)cc(O)c4c3=O)C(O)C(OC(=O)/C=C/c3ccc(O)cc3)C2O)C(O)C(O)C1O [Novel substance 32, quercetin 3-O-[3-O″-(E)-p-coumaroyl][α-L-rhamnopyranosyl-(1→6)-O-β-D-glucopyranoside]] | 12148 | 83.2 | 16.8

From patent US10550142B2, “Quercetin-based compound” (AMOREPACIFIC CORPORATION, priority 2016, dated 2020)
